Results reported in US20260365634A1, “HERBICIDAL PYRAZOLE COMPOUNDS” (SYNGENTA CROP PROTECTION AG, priority 2022, published 2026).

What was measured:
Format in all cases: in vivo
Conditions in all cases: 250 g/ha, evaluated after 13 days
[1] = tested on: Amaranthus palmeri (AMAPA); test: Post-emergence herbicidal glasshouse test
Description: (§1) Seeds of a variety of test species are sown in standard soil in pots Amaranthus palmeri (AMAPA), Amaranthus retoflexus (AMARE), Echinochloa crus-galli (ECHCG), Ipomoea hederacea (IPOHE), Setaria faberi (SETFA). After cultivation for one day (pre-emergence) or after 8 days cultivation (post-emergence) under controlled conditions in a glasshouse (at 24/16 °C, day/night; 14 hours light; 65% humidity), the plants are sprayed with an aqueous spray solution derived from the formulation of the technical active ingredient in acetone/water (50:50) solution containing 0.5% Tween 20 (polyoxyethelyene sorbitan monolaurate, CAS RN 9005-64-5). Compounds are applied at 250 g/ha unless otherwise stated. The test plants are then grown in a glasshouse under controlled conditions in a glasshouse (at 24/16 °C, day/night; 14 hours light; 65% humidity) and watered twice daily. After 13 days for pre and post-emergence, the test is evaluated for the percentage damage caused to the plant. The biological activities are shown in the following table on a five-point scale (5=81-100%; 4=61-80%; 3=41-60%; 2=21-40%; 1=0-20%).

[2] = tested on: Amaranthus retoflexus (AMARE); test: Post-emergence herbicidal glasshouse test
Description: as §1

[3] = tested on: Echinochloa crus-galli (ECHCG); test: Post-emergence herbicidal glasshouse test
Description: as §1

[4] = tested on: Ipomoea hederacea (IPOHE); test: Post-emergence herbicidal glasshouse test
Description: as §1

Setaria faberi (SETFA) [5] = test: Post-emergence herbicidal glasshouse test
Description: as §1

[6] = tested on: Amaranthus palmeri (AMAPA); test: Pre-emergence herbicidal glasshouse test
Description: as §1

[7] = tested on: Amaranthus retoflexus (AMARE); test: Pre-emergence herbicidal glasshouse test
Description: as §1

[8] = tested on: Echinochloa crus-galli (ECHCG); test: Pre-emergence herbicidal glasshouse test
Description: as §1

[9] = tested on: Ipomoea hederacea (IPOHE); test: Pre-emergence herbicidal glasshouse test
Description: as §1

Setaria faberi (SETFA) [10] = test: Pre-emergence herbicidal glasshouse test
Description: as §1

SMILES | percentage damage caused to the plant (five-point scale), AMAPA [1] | percentage damage caused to the plant (five-point scale), AMARE [2] | percentage damage caused to the plant (five-point scale), ECHCG [3] | percentage damage caused to the plant (five-point scale), IPOHE [4] | percentage damage caused to the plant (five-point scale), SETFA (Setaria faberi (SETFA) [5]) | percentage damage caused to the plant (five-point scale), AMAPA [6] | percentage damage caused to the plant (five-point scale), AMARE [7] | percentage damage caused to the plant (five-point scale), ECHCG [8] | percentage damage caused to the plant (five-point scale), IPOHE [9] | percentage damage caused to the plant (five-point scale), SETFA (Setaria faberi (SETFA) [10])
C=CCCn1nc(C(F)F)cc1Cc1ncc(Cl)cn1 [Compound 1.021] | 2 (21-40%) | 3 (41-60%) | 1 (0-20%) | 1 (0-20%) | 1 (0-20%) | 5 (81-100%) | 5 (81-100%) | 2 (21-40%) | 1 (0-20%) | 3 (41-60%)
CC(C)(C#N)CCCn1nc(C(F)(F)F)cc1Cc1ncc(Cl)cn1 [Compound 1.019] | 1 (0-20%) | 1 (0-20%) | 1 (0-20%) | 1 (0-20%) | 1 (0-20%) | 1 (0-20%) | 1 (0-20%) | 1 (0-20%) | 1 (0-20%) | 1 (0-20%)
C=Cn1nc(C(F)F)cc1Cc1ncc(Cl)cn1 [Compound 1.037] | 3 (41-60%) | 4 (61-80%) | 2 (21-40%) | 2 (21-40%) | 2 (21-40%) | 5 (81-100%) | 5 (81-100%) | 1 (0-20%) | 3 (41-60%) | 1 (0-20%)
CC(C)(C#N)CCCn1nc(C(F)(F)F)cc1Cc1ncc(Cl)cn1 [Compound 1.029] | 3 (41-60%) | 4 (61-80%) | 3 (41-60%) | 3 (41-60%) | 2 (21-40%) | 4 (61-80%) | 5 (81-100%) | 3 (41-60%) | 5 (81-100%) | 3 (41-60%)
